Assay results taken from patent publication US10092537B2, “Use for PAI-1 inhibitor” (RENASCIENCE CO., LTD., priority 2013, dated 2018).

Assays:
human PAI-1 = human PAI-1 (Homo sapiens, UniProt P05121); test: Measurement of PAI-1 inhibitory activity of compound group 1 (t-PA, Spectrozyme t-PA chromogenic substrate); details: read-out: PAI-1 activity %
Method: Subsequently, human-derived tissue plasminogen activator (t-PA) (manufactured by American Diagnostica, Inc. (USA); the same applies hereinafter) adjusted to 0.05 pmol/μL was added thereto, and the mixture was further incubated at 37° C. for 60 minutes. Then, 0.25 mM of Spectrozyme t-PA synthetic substrate (manufactured by American Diagnostica, Inc. (USA); the same applies hereinafter), which is a chromogenic substrate, was added. The final mixture contained 50 mM Tris-HCl (pH 8), 150 mM NaCl, 1% DMSO, 0.1% PEG-6000, 0.2 mM CHAPS, 5 nM PAI-1, 2 nM t-PA, 0.2 mM Spectrozyme t-PA synthetic substrate, and each compound (10 μM or 2.5 μM).
Free radical p-nitroaniline removed from the chromogenic substrate (Spectrozyme t-PA) by t-PA action was measured using a spectrophotometer at an absorbance of 405 nm at 20-minute intervals, for 120 minutes.

Her2-A20 cell = Her2-A20 cell subcutaneous tumor, Herceptin and compound c (Experimental Example 19); format: in vivo, BALB/c-nude mice; details: Herceptin 20 mg/kg i.p. (2 doses) + compound c 10 mg/kg/day oral; 15 days after administration
Method: At first, A20 cell line (mouse B lymphoma) was transfected with human Her2 cDNA using MIGR1 vector to prepare transformed cells (hereinafter, “Her2-A20 cell”). The Her2-A20 cells (5×10^6) were subcutaneously inoculated into BALB/c-nude mice. […] Compound c or physiological saline was administered once a day, 5 doses in total (day 0 to day 4). […] Compound c or physiological saline was administered once a day, 7 doses in total (day 7 to day 13).

[1] = Single-dose toxicity test using rat (Experimental Example 6); details: 500, 1,000, and 2,000 mg/kg oral gavage
hematopoietic stem cells = test: Hematopoietic recovery after total-body radiation (9Gy) and bone-marrow transplantation (Experimental Example 4); format: in vivo, C57BI6/J mice
Method: Specifically, C57BI6/J mice (recipient), which were wild-type inbred strain mice, were treated with total-body radiation (9Gy), and four hours later, bone-marrow cells were transplanted into the mice. Concurrently with the transplantation, compound a was administered to the mice as a test compound via oral gavage (dosage 100 mg/kg), and compound a was daily administered orally for 5 consecutive days (administered group).
The survival rate of the mice after bone-marrow transplantation was tracked over time (each group: n=15).
Bone-marrow cells collected from the mice (administered group and control group) 7 days after bone-marrow transplantation were measured for the presence of Lin-SLAM cells with a flow cytometric analyzer (see FIG. 5A). Each test was independently conducted (each group: n=6).
The proportion (%) of Lin-SLAM cells in the whole bone marrow, the total number of Lin-SLAM cells in the bone marrow, the proportion (%) of LSK-CD34 negative cells in the bone marrow, and the total number of LSK-CD34 negative cells in the bone marrow were measured.
The bone-marrow cells collected from the mice (administered group, control group) 7 days after bone-marrow transplantation were measured for the plasminogen (Plg) mRNA expression level, tPA mRNA expression level, and PAI-1 mRNA expression level.
Bone marrow was collected from the mice (administered group and control group) 13 weeks after bone-marrow transplantation, and the following was measured: the total number of whole bone marrow (FIG. 7A), the proportion (%) of LSK-CD34 negative cells in the whole bone marrow (FIG. 7B), the total number of CD34(−)KSL cells in the whole bone marrow (FIG. 7C), the proportion (%) of Lin-SLAM cells in the whole bone marrow (FIG. 7D), the total number of Lin-SLAM cells in the whole bone marrow (FIG. 7E), the proportion (%) of bone marrow differentiated cells (CD45.1/Mac1/Gr1 cell) in the whole bone marrow (FIG. 7F), the total number of bone marrow differentiated cells (CD45.1/Mac1/Gr1 cell) in the whole bone marrow (FIG. 7G), the proportion (%) of B-cell lymphoid differentiated cells (CD45.1/B 220 cell) in the whole bone marrow (FIG. 7H), and the total number of B cell lymphoid differentiated cells (CD45.1/B 220 cell) in the whole bone marrow (FIG. 7I). The results are shown in the above-stated figures.

CML cells = test: Chronic myelogenous leukemia model mice, compound a alone, imatinib, combination (Experimental Example 16); format: in vivo; details: day 10 to day 16
Method: Group 1: placebo group (physiological saline was administered via gavage)
Group 2: compound a group (compound a [100 mg/kg/day] was administered via gavage)
Group 3: imatinib group (imatinib [150 mg/kg/day] was administered via gavage)
Group 4: imatinib+compound a group (imatinib [150 mg/kg/day] and compound a [100 mg/kg/day] were administered via gavage)
10 days after (day 10) the day on which CML cells were intravenously inoculated (day 0), administration of test drugs to the groups was started. The placebo group, the compound a group, and the imatinib group were administered the respective test drugs once a day from day 10 to day 16 (7 doses in total). The imatinib+compound a group was administered imatinib once a day from day 10 to day 16 (7 doses in total), and also administered compound a once a day from day 10 to day 16 (7 doses in total).

[2] = test system: human hematopoietic stem cells; test: Transplantation of human CD34+ umbilical cord blood cells into irradiated severely immunocompromised mice (Experimental Example 2); format: in vivo; details: 100 mg/kg oral, 6 doses, 7 days after cell transplantation
Method: Severely immunocompromised mice (recipient) were exposed to radiation (2Gy), and two days later, human CD34^+ cells isolated from human umbilical cord blood were transplanted into the mice. Concurrently with the transplantation, compound a was orally administered into the mice as a test compound (dosage: 100 mg/kg), and the compound was further administered for 5 consecutive days; i.e., 6 doses in total (see FIG. 2A). 2 days after the last administration (7 days after the cell transplantation), the bone-marrow cells were collected, and the abundance ratio of human hematopoietic cells was measured with a flow cytometric analyzer, whereas the cKitL concentration (μg/mL) and VEGF concentration (μg/mL) in the plasma were also measured.

[3] = 100 mg/kg oral gavage, 5 consecutive days, days 2, 7, 21 after bone-marrow transplantation, versus vehicle control
[4] = 100 mg/kg oral, 7 days after bone-marrow transplantation

Chain of human PAI-1 (P05121 24-402): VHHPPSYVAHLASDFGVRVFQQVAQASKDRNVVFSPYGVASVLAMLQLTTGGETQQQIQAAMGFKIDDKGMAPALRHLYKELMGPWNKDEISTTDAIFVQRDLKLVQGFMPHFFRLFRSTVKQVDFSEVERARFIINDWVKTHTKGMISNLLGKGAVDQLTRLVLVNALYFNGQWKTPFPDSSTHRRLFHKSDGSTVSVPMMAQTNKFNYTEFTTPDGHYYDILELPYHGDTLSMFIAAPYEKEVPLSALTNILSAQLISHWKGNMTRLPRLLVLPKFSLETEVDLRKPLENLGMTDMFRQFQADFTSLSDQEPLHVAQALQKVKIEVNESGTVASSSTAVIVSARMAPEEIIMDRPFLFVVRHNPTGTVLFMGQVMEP

With O=C(Nc1ccc(Cl)cc1C(=O)O)c1cccc(-c2ccccc2)c1 [Example 4, 2-[(biphenyl-3-ylcarbonyl)amino]-5-chlorobenzoic acid] the activity at 2.5 µM (human PAI-1) was 62.1%, the activity at 10 µM (human PAI-1) was 0.6% and the “tumor volume versus other groups” value (Her2-A20 cell) was “significantly smaller”.
For O=C(COCC(=O)N1CCN(C(c2ccccc2)c2ccccc2)CC1)Nc1ccc(Cl)cc1C(=O)[O-].[Na+] [Example 30 (compound group 2), 2-(2-(2-(4-benzhydrylpiperazin-1-yl)-2-oxoethoxy)acetamido)-5-chlorobenzoic acid sodium salt], the autopsy findings ([1]; after 2 weeks) was “no particular abnormality”, the “abnormality during 2-week monitoring” value ([1]; male and female rats) was “None of the male and female rats showed abnormality” and the “toxicity given in a single dose” value ([1]; male and female rats, monitored 2 weeks) was “low”. The “cKitL level in plasma” value (hematopoietic stem cells; [3]) was “significantly higher”, the “plg level in plasma” value (hematopoietic stem cells; [3]) was “significantly higher” and the “tPA level in plasma” value (hematopoietic stem cells; [3]) was “significantly higher”. For the same molecule, the “total MMP-9 level in plasma” value (hematopoietic stem cells; [3]) was “significantly higher”, the “white blood cell count in the peripheral blood” value (hematopoietic stem cells; [3]) was “significantly higher” and the “survival rate of the mice after bone-marrow transplantation” value (hematopoietic stem cells; 100 mg/kg oral, concurrently with transplantation and 5 consecutive days, versus control group) was “significantly higher”. For the same molecule, the “whole bone marrow cell number; proportion and total number of LSK-CD34 negative cells, Lin-SLAM cells, bone marrow differentiated cells, B-cell lymphoid differentiated cells” value (hematopoietic stem cells; 100 mg/kg oral, 13 weeks after bone-marrow transplantation, versus vehicle control) was “significantly higher”, the “frequency of hematopoietic stem cells (Lin-SLAM cells, LSK-CD34 negative cells in bone marrow)” value (hematopoietic stem cells; [4]) was “increases” and the “mRNA expression of plasminogen, tissue-type plasminogen activator, and plasminogen activator inhibitor 1 in bone marrow” value (hematopoietic stem cells; [4]) was “induces”. For the same molecule, the survival (CML cells; compound a 100 mg/kg/day alone, all of the subject mice, as placebo) was “died during the period from day 10 to day 20”, the “survival rate on day 50” value (CML cells; imatinib 150 mg/kg/day + compound a 100 mg/kg/day via gavage) was 60% and the “absolute number of human hematopoietic cells in the bone marrow, versus control group” value ([2]; control PBS) was 3 to 10 times higher. The “chimerism of human hematopoietic cells (CD45+) in the bone marrow, versus control group” value ([2]; control PBS) was 2 to 9 times higher, the “VEGF in the plasma” value ([2]; versus control) was “increased” and the “cKitL in the plasma” value ([2]; versus control) was “increased”. The “proportion of CD34+ cell (human HSC) contained in human hematopoietic cells” value ([2]; versus control) was “increased”.
